The results in this text go back to patent US20260200926A1, “TREM2 MODULATORS” (Muna Therapeutics ApS, priority 2022, published 2026).

Read-outs that look alike come from different tables or passages of the source.

As usually defined, the Emax is the maximal effect, on the per cent scale that the assay sets. Usually EC50 stands for the concentration giving half of the maximal effect.

This test concerns the target T1, Human TREM2 (Homo sapiens, UniProt Q9NZC2).
T1 construct: expressed in transfected cells
Nature of the test: Human TREM2 activity: cellular phosphorylation of Syk (AlphaLISA SureFire Ultra p-SYK) in HEK293/DAP12+TREM2 stable cell line. It is filed as cell-based. Conditions: for EC50: phospho-Syk AlphaLISA signal, HEK293/DAP12+TREM2 cells, concentration giving 50% of maximal response, read-out: EC50. The text has this: Human TREM2, in vitro Measurement of Triggering Receptor Expressed on Myeloid Cells 2 activity using cellular phosphorylation of Spleen Tyrosine Kinase (“Syk”) Assay
HEK-293 cells were co-transfected with separate plasmids encoding TREM2 and DAP12 to generate a stable cell line. After antibiotic selection, functional clone pool analysis and two successive limiting dilutions, the final clone “HEK293/DAP12+TREM2” underwent a qPCR analysis and a pharmacological validation.
TREM2 signaling through DAP12 was monitored in the HEK293/DAP12+TREM2 stable cell line by measuring the phosphorylation levels of the Syk kinase using the commercially available AlphaLISA SureFire Ultra p-SYK (Tyr525/526) Assay Kit (PerkinElmer #ALSU-PSYK), based on the Perkin Elmer AlphaScreen/AlphaLISA technology.
Compounds are transferred to the test plate and tested in full dose response, 8 concentrations in quadruplicate data points. Compound serial dilutions were performed at Cybi-Felix instrument in 100% DMSO and the dose response curves were assembled in automated fashion in 384MPT at Hamilton STARlet instrument. All the stock solutions were prepared at 20 mM in 100% DMSO. For compounds testing, the starting concentration was 100 μM, dilution steps 1:6. […] Finally, a 384MPT reformatted for all compounds at 8 concentrations, quadruplicates, was used as “mother to child” process with a CyBi®-Well dispenser in which 1 μL of each compound was moved into a destination plate pre-filled with 65.6 μL of EMEM cell culture medium (BIOWHITTAKER_cat.BE12-125F), thus obtaining 3× concentrated compounds working solution. In columns 1-2 and 23-24 the control wells were added. In particular, dose response curves of a reference control agonist were included in column 1 and 24 as reference control agonist (Reference control agonists used include Human TREM2 polyclonal Antibody AF1828: R&D Systems; Human TREM2 monoclonal Antibody MAB1828: R&D Systems). The dose response curves were tested starting at 30 μM, dilution step 1:6. Both “source” compound plate and “destination” compound plate were barcoded and a relationship between the two plates was thus generated.
HEK293/DAP12+TREM2 cells were cultured in EMEM medium supplemented with IX Penicillin/Streptomycin (BIOWHITTAKER_cat.DE17-602E), ULTRAGLUTAMINE I 200 mM, 10% Fetal Bovine Serum plus antibiotics referred to as “HEK293 Culture Medium”. The day before the experiment, cells were detached by gentle wash with DPBS, followed by 5 min incubation at 37° C. with Trypsin solution. Cells were then diluted in HEK293 Culture Medium without antibiotics, counted and seeded into 384-well poly-D-Lysine coated microplates black/clear bottom (GREINER 781946) at a density of 10,000 cells/well in 25 μL/well by the use of a MATRIX WellMate dispenser. Plates were placed into a humidified cell culture incubator at 37° C. with 5% CO2 until the experimental day. 20-24 hours after seeding mature medium was removed and replaced with 10 μL/well of EMEM cell medium supplemented with 0.1% Pluronic F-68 non-ionic surfactant (Thermofisher, 24040032), referred to as “Assay Buffer”, using the CyBi®-Well instrument. Then 5 μL/well of Assay Buffer containing 3× concentrated test compounds or the reference control agonist (in 0.5% final DMSO concentration) were added to the cells with the CyBi®-Well instrument. Cell plates were incubated for 30 min into a humidified cell culture incubator at 37° C. with 5% CO2·, then the medium was removed by manually discard. 20 μL/well of lysis buffer were dispensed using the CyBi®-Well instrument and plates were incubated for 10 min at room temperature on a plate shaker (350 rpm). Then, 10 μL/well of lysate were transferred to the Alpha plates. The CyBi®-Well instrument was used to dispense 5 μL/well of AlphaLISA Acceptor Bead Solution in IX Immunoassay buffer (Perkin Elmer AL000F). Then the plates were sealed with Heat sealing foil, shaked for 2 minutes (350 rpm) and incubated for 1 hour at room temperature.
For orientation: In Alpha technology, singlet oxygen from a donor bead excites a nearby acceptor bead.

Where [1] appears, read: HEK293, maximal response relative to reference agonist example 1B (remaining examples), read-out: Emax.

T1 sequence (Q9NZC2 19-230): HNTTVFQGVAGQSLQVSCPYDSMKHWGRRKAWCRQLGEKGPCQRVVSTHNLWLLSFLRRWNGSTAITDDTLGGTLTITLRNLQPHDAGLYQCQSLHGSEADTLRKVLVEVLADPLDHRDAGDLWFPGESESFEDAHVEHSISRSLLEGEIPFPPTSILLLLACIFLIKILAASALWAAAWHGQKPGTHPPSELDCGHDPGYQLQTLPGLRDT
T1 sequence (O43914 22-113 partner): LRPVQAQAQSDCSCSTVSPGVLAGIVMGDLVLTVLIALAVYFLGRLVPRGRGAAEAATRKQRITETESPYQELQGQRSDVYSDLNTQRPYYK

As for “6-((2R,4S)-2-(1-cyclopropyl-1H-pyrazol-4-yl)tetrahydro-2H-pyran-4-yl)-8-(2-fluoro-4-(trifluoromethyl)phenyl)-2,3-dimethylquinazolin-4 (3H)-one [Example 120B]”, the EC50 was 10 to 100 nM. Under “maximal response relative to reference agonist example 1B (remaining examples)”, the Emax result is on record as “++ (75-110%)”.
As for `Cc1cc([C@@H]2CN(c3nc(-c4ccc(F)cc4F)c4nc(C(F)(F)F)n(C)c(=O)c4c3F)CCO2)ccn1` (single isomer, unassigned) [Example 174A], the EC50 was 10 to 100 nM. Under setting [1], the Emax is below 75%.
`Cc1cc2c(-c3ccc(Cl)cc3F)nc(N3CCOC(c4cnn(C)c4)C3)nc2c(=O)n1C` (stereo not shown) [Example 114, 4-(4-chloro-2-fluorophenyl)-6,7-dimethyl-2-(2-(1-methyl-1H-pyrazol-4-yl)morpholino)pyrido[3,4-d]pyrimidin-8 (7H)-one]: the EC50 was in the range of 1 to 10 nM. In addition, the Emax under setting [1] was 75 to 110%.
In the same order, the values of `Cc1nc2c(-c3ccc(Cl)cc3F)nc(N3CCC(Oc4cnn(C)c4)CC3)nc2c(=O)n1C` [Example 77, 8-(4-chloro-2-fluorophenyl)-2,3-dimethyl-6-(4-((1-methyl-1H-pyrazol-4-yl)oxy)piperidin-1-yl)pyrimido[5,4-d]pyrimidin-4 (3H)-one] are above 1000 nM and 75 to 110%.
With `Cc1nc2c(-c3ccc(F)cc3F)nc(N3C[C@@H](c4cnn(C)c4)OC(F)(F)C3)nc2c(=O)n1C` (single isomer, unassigned) [Example 156A], the EC50 was in the range of 1 to 10 nM. Also, under setting [1], the Emax is 75 to 110%.
In the same order, the values of `Cc1nc2c(-c3ccc(F)cc3F)nc(N3C[C@@H](C)O[C@@H](c4cnn(C5CC5)c4)C3)cc2c(=O)n1C` (single isomer, unassigned) [Example 190B] are 100 to 1000 nM and below 75%.
Turning to `Cc1cc([C@H]2CN(c3nc(-c4ccc(C(F)(F)F)nc4)c4nc(C)n(C)c(=O)c4n3)CCO2)ccn1` (single isomer, unassigned) [Example 22B], the EC50 was 1 to 10 nM. In addition, the maximum response (Emax) under setting [1] lay in the range of 75 to 110%.
In the same order, the values of `Cc1nc2c(-c3cc(F)c(F)cc3F)nc(N3C[C@H](c4cnn(C)c4)OC(C)(C)C3)cc2c(=O)n1C` (single isomer, unassigned) [Example 150B] are above 1000 nM and below 75%.
On to `Cc1nc2c(-c3ccc(C(F)(F)F)nc3)nc(N3C[C@@H](c4cnn(C5CC5)c4)O[C@@H](C)C3)cc2c(=O)n1C` (single isomer, unassigned) [Example 184A], for which the EC50 was 1 to 10 nM. Also, the maximal response (Emax) under setting [1] was 75 to 110%.
Regarding `Cc1cc([C@@H]2CN(c3nc(-c4ccc(F)cc4F)c4nc(C)n(C)c(=O)c4n3)CCO2)ccn1` (single isomer, unassigned) [Example 122A], the concentration giving a half-maximal response (EC50) was in the range of 1 to 10 nM. The maximum response (Emax) under setting [1] is 75 to 110%.
In the same order, the values of `Cc1csc(C2CN(c3nc(-c4ccc(Cl)cc4F)c4nc(C)n(C)c(=O)c4n3)CCO2)n1` (stereo not shown) [Example 45, 8-(4-chloro-2-fluorophenyl)-2,3-dimethyl-6-(2-(4-methylthiazol-2-yl)morpholino)pyrimido[5,4-d]pyrimidin-4(3H)-one] are 10 to 100 nM and below 75%.
Turning to `Cc1nc2c(-c3cc(F)c(F)cc3F)nc(N3CCOC(c4cnn(C)c4)C3)nc2c(=O)n1C` (stereo not shown) [Example 7, 2,3-dimethyl-6-(2-(1-methyl-1H-pyrazol-4-yl)morpholino)-8-(2,4,5-trifluorophenyl)pyrimido[5,4-d]pyrimidin-4(3H)-one], the concentration giving a half-maximal response (EC50) fell in the range of 100 to 1000 nM. Further, under setting [1], the Emax was below 75%.
In the same order, the values of `Cc1nc2c(-c3ccc(Cl)cc3F)nc(N3C[C@H](c4cnn(C)c4)OC4(CC4)C3)cc2c(=O)n1C` (single isomer, unassigned) [Example 144B] are 10 to 100 nM and below 75%.
In the same order, the values of `Cc1cc([C@@H]2CN(c3cc4c(=O)n(C)c(C)nc4c(-c4ccc(C(F)F)nc4)n3)CC(F)(F)O2)ccn1` (single isomer, unassigned) [Example 181A] are 10 to 100 nM and below 75%.
In the same order, the values of `Cc1cc([C@H]2CN(c3nc(-c4ccc(Cl)cc4F)c4nc(C)n(C)c(=O)c4n3)C[C@@H](C)O2)ccn1` (single isomer, unassigned) [Example 176B] are 1 to 10 nM and 75 to 110%.
Consider `CNC(=O)C1CN(c2nc(-c3ccc(Cl)cc3F)c3nc(C)n(C)c(=O)c3n2)CCO1` (stereo not shown) [Example 49, 4-(4-(4-chloro-2-fluorophenyl)-6,7-dimethyl-8-oxo-7,8-dihydropyrimido[5,4-d]pyrimidin-2-yl)-N-methylmorpholine-2-carboxamide], for which the half-maximal effective concentration (EC50) is above 1000 nM. Moreover, under setting [1], the maximum response (Emax) was below 75%.
With `Cc1nc2c(-c3ccc(C#N)cc3F)nc(N3C[C@@H](C)O[C@@H](c4cnn(C5CC5)c4)C3)cc2c(=O)n1C` (single isomer, unassigned) [Example 200B], the half-maximal effective concentration (EC50) was 10 to 100 nM. Under setting [1], the Emax was 75 to 110%.
In the same order, the values of `Cc1nc2c(-c3ccc(C(F)(F)F)nc3)nc(N3CCC(F)(F)[C@@H](c4cnn(C)c4)C3)nc2c(=O)n1C` (single isomer, unassigned) [Example 93] are 10 to 100 nM and 75 to 110%.
In the case of `Cc1nc2c(-c3ccc(Cl)cc3F)nc([C@H]3CCO[C@@H](c4cnn(C5CC5)c4)C3)cc2c(=O)n1C` (single isomer, unassigned) [Example 140B], the EC50 lay within 10 to 100 nM. Where the note is “HEK293”, this molecule registered an Emax of 75 to 110%.
Consider `Cc1nc2c(-c3ccc(Cl)cc3F)nc(N3C[C@@H](c4cnn(C)c4)OC4(CCC4)C3)cc2c(=O)n1C` (single isomer, unassigned) [Example 151A], for which the EC50 fell in the range of 1 to 10 nM. Besides, the Emax under setting [1] lay in the range of 75 to 110%.
In the same order, the values of `Cc1cc([C@@H]2CN(c3nc(-c4ccc(Cl)cc4F)c4nc(C)n(C)c(=O)c4n3)CCO2)ccn1` (single isomer, unassigned) [Example 23A] are 10 to 100 nM and below 75%.
With `Cc1nc2c(-c3ccc(Cl)cc3F)nc(N3CC(Oc4cnn(C)c4)C3)nc2c(=O)n1C` [Example 16, 8-(4-chloro-2-fluorophenyl)-2,3-dimethyl-6-(3-((1-methyl-1H-pyrazol-4-yl)oxy)azetidin-1-yl)pyrimido[5,4-d]pyrimidin-4 (3H)-one], the EC50 was in the range of 100 to 1000 nM. Besides, under setting [1], the maximal response (Emax) was in the range of 75 to 110%.
Consider `Cc1cc([C@H]2CN(c3nc(-c4ccc(Cl)cc4F)c4nc(C)n(C)c(=O)c4n3)CCO2)ccn1` (single isomer, unassigned) [Example 23B], for which the EC50 lay in the range of 1 to 10 nM. For the same molecule, under setting [1], the Emax fell in the range of 75 to 110%.
In the same order, the values of `Cc1cc([C@H]2CN(c3nc(-c4ccc(C(F)(F)F)cc4F)c4nc(C)n(C)c(=O)c4n3)C[C@@H](C)O2)ccn1` (single isomer, unassigned) [Example 179B] are below 1 nM and 75 to 110%.
In the same order, the values of `Cc1nc2c(-c3ccc(C(F)(F)F)cc3C#N)nc(N3C[C@@H](C)O[C@@H](c4cnn(C5CC5)c4)C3)cc2c(=O)n1C` (single isomer, unassigned) [Example 202B] are above 1000 nM and below 75%.
In the same order, the values of `Cn1cc([C@H]2CN(c3nc(-c4cc(F)c(F)cc4F)c4nc(C(F)(F)F)n(C)c(=O)c4n3)CC3(CC3)O2)cn1` (single isomer, unassigned) [Example 162B] are 10 to 100 nM and below 75%.
